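Dose response: 5 concentrations. Exposure: 48 h. Format: 96-well plates. Endpoint: linear interpolation; highest concentration if not reached. GI50: concentration for 50% inhibition of growth. At the TGI there is no net growth.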
These molecules were tested on RXF 393 renal (assay: inhibition of tumour cell growth, NCI panel, 48 h).
In the case of COc1cc(I)c2c3c1OC1C34CCN(C)C(C2)C4=CC(I)C1(OC)OC (stereo not given), the TGI is reported as 38.2 µM.
Nc1c(C(=O)c2ccc(Cl)cc2)[nH]c(NCc2ccccc2)c1C(=S)Nc1ccccc1 showed a TGI of 4.16 µM.
Molecule CC(C)(C)c1cc(/C=C(\C#N)C(=O)NCCO)cc(C(C)(C)C)c1O has a TGI of 57.6 µM.
With COC(=O)Cc1c([C@H]2[C@H](CC(=O)OC)c3ccccc3N2C(C)=O)[nH]c2ccccc12 the TGI was > 100 µM.
For c1ccc2c3c(c(N4CCOCC4)nc2c1)CCCC3, the TGI was 46.8 µM.
With O=C(Nc1ccccc1C(=O)NCCCO)/C(=C/c1ccccc1O)NC(=O)c1ccccc1 the TGI was > 86.8 µM.
For OC1(c2ccc(Cl)cc2)c2ccc3ccccc3c2C2=N[C@H]3CCCC[C@@H]3N21 (stereo not given in full), the TGI was 20.8 µM.
With O=C1NC2OC(CO)C(O)C(O1)C2O (stereo not given) the TGI was > 100 µM.
With NC(=O)c1cc2ccccc2o/c1=N/O the TGI was > 100 µM.
COc1cc2c(/C=C3/C(=O)Nc4ccccc43)c(Cl)[nH]c2cc1C gave a TGI of 24 µM.
With COCc1nc2c(OC)cc(-c3nc4ccc(N5CCN(C)CC5)cc4[nH]3)c(OC)c2[nH]1 the TGI was 51.9 µM.
For O=C(O)C(CO)NC(=O)n1c2ccccc2c2ccccc21 (stereo not given), the TGI was > 100 µM.
In the case of Brc1ccc2c(-c3csc(-c4c[nH]c5ccc(Br)cc45)n3)c[nH]c2c1, the TGI is reported as 9.55 µM.
Molecule O=C(Nc1cccc(O)c1)C(=O)C(C(=O)c1ccccc1F)C1OC(=O)c2ccccc21 (stereo not given) has a TGI of 39.8 µM.
With COc1cc(CN2CCCCC2)cc2cc(C(=O)O)c(=O)oc12 the TGI was > 100 µM.
For O=c1c2ccccc2nc(Nc2cccc(Cl)c2)n1/N=C/C=C/c1ccccc1, the TGI was > 100 µM.
Work on N#Cc1c(-c2ccc(F)cc2)nc(N/N=C/c2c[nH]c3ccccc23)nc1N1CCOCC1 yielded a GI50 of 1.19 µM and a TGI of 3.97 µM.
Cc1nn(-c2cc(Cl)ccc2[N+](=O)[O-])c(C)c1Cl was tested, and the TGI was 76 µM.
With Cc1nc(C)c(Cc2ccccc2)o1 the TGI was > 100 µM.
For CC1(C)C=C(S(=O)(=O)c2ccccc2)Oc2ccccc2O1, the TGI was > 100 µM.

The molecules below were run on LOX IMVI melanoma (assay: inhibition of tumour cell growth, NCI panel, 48 h).
With COc1cc(I)c2c3c1OC1C34CCN(C)C(C2)C4=CC(I)C1(OC)OC (stereo not given) the TGI was 42.3 µM.
For Nc1c(C(=O)c2ccc(Cl)cc2)[nH]c(NCc2ccccc2)c1C(=S)Nc1ccccc1, the TGI was 3.19 µM.
For CC(C)(C)c1cc(/C=C(\C#N)C(=O)NCCO)cc(C(C)(C)C)c1O, the TGI was 53.9 µM.
In the case of COC(=O)Cc1c([C@H]2[C@H](CC(=O)OC)c3ccccc3N2C(C)=O)[nH]c2ccccc12, the TGI is reported as > 100 µM.
With c1ccc2c3c(c(N4CCOCC4)nc2c1)CCCC3 the TGI was > 100 µM.
O=C(Nc1ccccc1C(=O)NCCCO)/C(=C/c1ccccc1O)NC(=O)c1ccccc1 was tested, and the TGI was > 100 µM.
With OC1(c2ccc(Cl)cc2)c2ccc3ccccc3c2C2=N[C@H]3CCCC[C@@H]3N21 (stereo not given in full) the TGI was 10.5 µM.
O=C1NC2OC(CO)C(O)C(O1)C2O (stereo not given) was tested, and the TGI was > 100 µM.
With NC(=O)c1cc2ccccc2o/c1=N/O the TGI was > 100 µM.
For COc1cc2c(/C=C3/C(=O)Nc4ccccc43)c(Cl)[nH]c2cc1C, the TGI was 15.4 µM.
With COCc1nc2c(OC)cc(-c3nc4ccc(N5CCN(C)CC5)cc4[nH]3)c(OC)c2[nH]1 the TGI was 34.8 µM.
O=C(O)C(CO)NC(=O)n1c2ccccc2c2ccccc21 (stereo not given) was tested, and the TGI was > 100 µM.
Brc1ccc2c(-c3csc(-c4c[nH]c5ccc(Br)cc45)n3)c[nH]c2c1 gave a TGI of 4.16 µM.
With O=C(Nc1cccc(O)c1)C(=O)C(C(=O)c1ccccc1F)C1OC(=O)c2ccccc21 (stereo not given) the TGI was 47.1 µM.
For COc1cc(CN2CCCCC2)cc2cc(C(=O)O)c(=O)oc12, the TGI was > 100 µM.
With O=c1c2ccccc2nc(Nc2cccc(Cl)c2)n1/N=C/C=C/c1ccccc1 the TGI was > 100 µM.
Work on N#Cc1c(-c2ccc(F)cc2)nc(N/N=C/c2c[nH]c3ccccc23)nc1N1CCOCC1 yielded a GI50 of 3.33 µM and a TGI of 11.2 µM.
For Cc1nn(-c2cc(Cl)ccc2[N+](=O)[O-])c(C)c1Cl, the TGI was > 100 µM.
With Cc1nc(C)c(Cc2ccccc2)o1 the TGI was > 100 µM.
Work on CC1(C)C=C(S(=O)(=O)c2ccccc2)Oc2ccccc2O1 yielded a TGI of 57.6 µM.

Each molecule was assayed on NCI-H522 lung (assay: inhibition of tumour cell growth, NCI panel, 48 h).
Molecule COc1cc(I)c2c3c1OC1C34CCN(C)C(C2)C4=CC(I)C1(OC)OC (stereo not given) has a TGI of 44.2 µM.
With Nc1c(C(=O)c2ccc(Cl)cc2)[nH]c(NCc2ccccc2)c1C(=S)Nc1ccccc1 the TGI was 3.38 µM.
CC(C)(C)c1cc(/C=C(\C#N)C(=O)NCCO)cc(C(C)(C)C)c1O showed a TGI of 37 µM.
With COC(=O)Cc1c([C@H]2[C@H](CC(=O)OC)c3ccccc3N2C(C)=O)[nH]c2ccccc12 the TGI was > 100 µM.
c1ccc2c3c(c(N4CCOCC4)nc2c1)CCCC3 was tested, and the TGI was > 100 µM.
In the case of O=C(Nc1ccccc1C(=O)NCCCO)/C(=C/c1ccccc1O)NC(=O)c1ccccc1, the TGI is reported as > 100 µM.
For OC1(c2ccc(Cl)cc2)c2ccc3ccccc3c2C2=N[C@H]3CCCC[C@@H]3N21 (stereo not given in full), the TGI was > 100 µM.
For O=C1NC2OC(CO)C(O)C(O1)C2O (stereo not given), the TGI was > 100 µM.
For NC(=O)c1cc2ccccc2o/c1=N/O, the TGI was > 100 µM.
Work on COc1cc2c(/C=C3/C(=O)Nc4ccccc43)c(Cl)[nH]c2cc1C yielded a TGI of 2.4 µM.
With COCc1nc2c(OC)cc(-c3nc4ccc(N5CCN(C)CC5)cc4[nH]3)c(OC)c2[nH]1 the TGI was > 100 µM.
With O=C(O)C(CO)NC(=O)n1c2ccccc2c2ccccc21 (stereo not given) the TGI was > 100 µM.
Work on Brc1ccc2c(-c3csc(-c4c[nH]c5ccc(Br)cc45)n3)c[nH]c2c1 yielded a TGI of 4.95 µM.
O=C(Nc1cccc(O)c1)C(=O)C(C(=O)c1ccccc1F)C1OC(=O)c2ccccc21 (stereo not given) gave a TGI of 63.9 µM.
For COc1cc(CN2CCCCC2)cc2cc(C(=O)O)c(=O)oc12, the TGI was > 100 µM.
O=c1c2ccccc2nc(Nc2cccc(Cl)c2)n1/N=C/C=C/c1ccccc1 was tested, and the TGI was > 100 µM.
Work on N#Cc1c(-c2ccc(F)cc2)nc(N/N=C/c2c[nH]c3ccccc23)nc1N1CCOCC1 yielded a GI50 of 2.59 µM and a TGI of 7.15 µM.
With Cc1nn(-c2cc(Cl)ccc2[N+](=O)[O-])c(C)c1Cl the TGI was > 100 µM.
With Cc1nc(C)c(Cc2ccccc2)o1 the TGI was > 100 µM.
CC1(C)C=C(S(=O)(=O)c2ccccc2)Oc2ccccc2O1 was tested, and the TGI was > 100 µM.

Each molecule was assayed on SK-MEL-28 melanoma (assay: inhibition of tumour cell growth, NCI panel, 48 h).
Molecule COc1cc(I)c2c3c1OC1C34CCN(C)C(C2)C4=CC(I)C1(OC)OC (stereo not given) has a TGI of 47.5 µM.
In the case of Nc1c(C(=O)c2ccc(Cl)cc2)[nH]c(NCc2ccccc2)c1C(=S)Nc1ccccc1, the TGI is reported as 3.22 µM.
With CC(C)(C)c1cc(/C=C(\C#N)C(=O)NCCO)cc(C(C)(C)C)c1O the TGI was 47.1 µM.
COC(=O)Cc1c([C@H]2[C@H](CC(=O)OC)c3ccccc3N2C(C)=O)[nH]c2ccccc12 was tested, and the TGI was > 100 µM.
In the case of c1ccc2c3c(c(N4CCOCC4)nc2c1)CCCC3, the TGI is reported as > 100 µM.
For O=C(Nc1ccccc1C(=O)NCCCO)/C(=C/c1ccccc1O)NC(=O)c1ccccc1, the TGI was > 100 µM.
In the case of OC1(c2ccc(Cl)cc2)c2ccc3ccccc3c2C2=N[C@H]3CCCC[C@@H]3N21 (stereo not given in full), the TGI is reported as > 100 µM.
O=C1NC2OC(CO)C(O)C(O1)C2O (stereo not given) was tested, and the TGI was > 100 µM.
NC(=O)c1cc2ccccc2o/c1=N/O was tested, and the TGI was > 100 µM.
Molecule COc1cc2c(/C=C3/C(=O)Nc4ccccc43)c(Cl)[nH]c2cc1C has a TGI of 29.6 µM.
In the case of COCc1nc2c(OC)cc(-c3nc4ccc(N5CCN(C)CC5)cc4[nH]3)c(OC)c2[nH]1, the TGI is reported as > 100 µM.
With O=C(O)C(CO)NC(=O)n1c2ccccc2c2ccccc21 (stereo not given) the TGI was > 100 µM.
Work on Brc1ccc2c(-c3csc(-c4c[nH]c5ccc(Br)cc45)n3)c[nH]c2c1 yielded a TGI of 25.8 µM.
In the case of O=C(Nc1cccc(O)c1)C(=O)C(C(=O)c1ccccc1F)C1OC(=O)c2ccccc21 (stereo not given), the TGI is reported as 92.9 µM.
For COc1cc(CN2CCCCC2)cc2cc(C(=O)O)c(=O)oc12, the TGI was > 100 µM.
For O=c1c2ccccc2nc(Nc2cccc(Cl)c2)n1/N=C/C=C/c1ccccc1, the TGI was > 100 µM.
N#Cc1c(-c2ccc(F)cc2)nc(N/N=C/c2c[nH]c3ccccc23)nc1N1CCOCC1 was tested, and the GI50 was 1.92 µM and the TGI was 4.04 µM.
With Cc1nn(-c2cc(Cl)ccc2[N+](=O)[O-])c(C)c1Cl the TGI was > 100 µM.
Cc1nc(C)c(Cc2ccccc2)o1 was tested, and the TGI was > 100 µM.
For CC1(C)C=C(S(=O)(=O)c2ccccc2)Oc2ccccc2O1, the TGI was > 100 µM.

What follows are molecules tested on EKVX NSCLC (assay: inhibition of tumour cell growth, NCI panel, 48 h).
COc1cc(I)c2c3c1OC1C34CCN(C)C(C2)C4=CC(I)C1(OC)OC (stereo not given) was tested, and the TGI was > 100 µM.
Molecule Nc1c(C(=O)c2ccc(Cl)cc2)[nH]c(NCc2ccccc2)c1C(=S)Nc1ccccc1 has a TGI of 20.1 µM.
With CC(C)(C)c1cc(/C=C(\C#N)C(=O)NCCO)cc(C(C)(C)C)c1O the TGI was 70.4 µM.
In the case of COC(=O)Cc1c([C@H]2[C@H](CC(=O)OC)c3ccccc3N2C(C)=O)[nH]c2ccccc12, the TGI is reported as > 100 µM.
c1ccc2c3c(c(N4CCOCC4)nc2c1)CCCC3 showed a TGI of 63.8 µM.
In the case of O=C(Nc1ccccc1C(=O)NCCCO)/C(=C/c1ccccc1O)NC(=O)c1ccccc1, the TGI is reported as > 100 µM.
In the case of OC1(c2ccc(Cl)cc2)c2ccc3ccccc3c2C2=N[C@H]3CCCC[C@@H]3N21 (stereo not given in full), the TGI is reported as 24 µM.
In the case of O=C1NC2OC(CO)C(O)C(O1)C2O (stereo not given), the TGI is reported as > 100 µM.
For NC(=O)c1cc2ccccc2o/c1=N/O, the TGI was > 100 µM.
COc1cc2c(/C=C3/C(=O)Nc4ccccc43)c(Cl)[nH]c2cc1C showed a TGI of 25.1 µM.
In the case of COCc1nc2c(OC)cc(-c3nc4ccc(N5CCN(C)CC5)cc4[nH]3)c(OC)c2[nH]1, the TGI is reported as > 100 µM.
With O=C(O)C(CO)NC(=O)n1c2ccccc2c2ccccc21 (stereo not given) the TGI was > 100 µM.
Brc1ccc2c(-c3csc(-c4c[nH]c5ccc(Br)cc45)n3)c[nH]c2c1 gave a TGI of 7.15 µM.
With O=C(Nc1cccc(O)c1)C(=O)C(C(=O)c1ccccc1F)C1OC(=O)c2ccccc21 (stereo not given) the TGI was > 100 µM.
For COc1cc(CN2CCCCC2)cc2cc(C(=O)O)c(=O)oc12, the TGI was > 100 µM.
In the case of O=c1c2ccccc2nc(Nc2cccc(Cl)c2)n1/N=C/C=C/c1ccccc1, the TGI is reported as > 100 µM.
Molecule N#Cc1c(-c2ccc(F)cc2)nc(N/N=C/c2c[nH]c3ccccc23)nc1N1CCOCC1 has a GI50 of 5.44 µM and a TGI of 86.9 µM.
For Cc1nn(-c2cc(Cl)ccc2[N+](=O)[O-])c(C)c1Cl, the TGI was > 100 µM.
In the case of Cc1nc(C)c(Cc2ccccc2)o1, the TGI is reported as > 100 µM.
CC1(C)C=C(S(=O)(=O)c2ccccc2)Oc2ccccc2O1 was tested, and the TGI was 73.4 µM.

— PubChem BioAssay (NCI)
